One series relates to Huh7.5.1. The experiment in a line: Cytotoxicity against human Huh-7.5.1 cells assessed as reduction in cell viability measured at 72 hrs by MTT assay. In kind it is functional.
Series [1] deals with Huh-7.5.1. The experiment in a line: Antagonist activity at LXR (unknown origin) expressed in human Huh-7.5.1 cells transfected with luciferase reporter plasmid containing of LXRE assessed as reduction in T0901317-induced reporter activity at 30 uM measured after 48 hrs by luciferase reporter assay. Type of series: cell-based.
A further series relates to SARS-CoV-2. The experiment in a line: Antiviral activity against SARS-CoV-2 WK-251 infected in African green monkey Vero E6 cells expressing TMPRSS2 assessed as reduction in viral RNA replication incubated for 24 hrs by qRT-PCR analysis. Type of series: functional, organism-based, Severe acute respiratory syndrome coronavirus 2. To be noted: for IC50: Severe acute respiratory syndrome coronavirus 2, WK-251, Vero C1008, 24 h.

The nature of series [2]: Cytotoxicity against African green monkey Vero E6 cells expressing TMPRSS2 assessed as reduction in cell viability incubated for 24 hrs by DAPI staining based confocal microscopic analysis. In kind it is toxicity, Vero C1008. The conditions noted are these: chlorocebus sabaeus.
The test system of a further series is Hepatitis C virus. The experiment in a line: Antiviral activity against HCV JFH-1 infected in human Huh-7.5.1 cells assessed as reduction in viral replication measured after 72 hrs by chemiluminescent enzyme immunoassay. In kind it is functional, organism-based, Hepacivirus hominis.
Series [3] relates to Huh-7.5.1. Briefly: Antagonist activity at LXR (unknown origin) expressed in human Huh-7.5.1 cells transfected with luciferase reporter plasmid containing of LXRE assessed as reduction in T0901317-induced reporter activity at 5 uM measured after 48 hrs by luciferase reporter assay. To be noted: filed as antagonist. In kind it is cell-based.
Series [4] relates to Huh-7.5.1. The experiment in a line: Antagonist activity at LXR (unknown origin) expressed in human Huh-7.5.1 cells transfected with luciferase reporter plasmid containing of LXRE assessed as reduction in T0901317-induced reporter activity at 10 uM measured after 48 hrs by luciferase reporter assay. In kind it is cell-based. To be noted: filed as antagonist.

Calls of active or inactive are those of the source. The rule behind the calls is not given here. Bounds are passed on as bounds.

Consider `C=c1[nH]c(=O)/c(=C/c2ccoc2)[nH]c1=O`, for which the CC50 with Huh7.5.1 was > 20 µM.
`C=c1[nH]c(=O)/c(=C/c2ccsc2)[nH]c1=O`: the CC50 in the series with Huh7.5.1 was > 20 µM.
For `C=c1[nH]c(=O)/c(=C/c2ccc(C(=O)OC)cc2)[nH]c1=O`, in the series with Huh7.5.1, the half-maximal cytotoxic concentration (CC50) is > 20 µM.
As for `C=c1[nH]c(=O)/c(=C/c2ccc3ccccc3c2)[nH]c1=O`, the cytotoxic concentration (CC50) in the series on Huh7.5.1 is > 20 µM.
Regarding `C=c1[nH]c(=O)/c(=C/c2ccccc2)[nH]c1=O`, in the series with Huh-7.5.1 [1], the result was inactive. In addition, in the series with Huh7.5.1, the cytotoxic concentration (CC50) is > 20 µM.
Regarding `C=c1[nH]c(=O)/c(=C/c2ccc(C(F)(F)F)cc2)[nH]c1=O`, in the series on Huh7.5.1, the CC50 was > 20 µM. Besides, in the series on SARS-CoV-2, the IC50 worked out at 9.1 µM.
As to `C=c1[nH]c(=O)/c(=C/c2ccc(-c3ccccc3)cc2)[nH]c1=O`, the half-maximal cytotoxic concentration (CC50) in the series with Huh7.5.1 is > 20 µM.
Regarding `C=c1[nH]c(=O)/c(=C/c2c[nH]c3ccccc23)[nH]c1=O`, the CC50 in the series with Huh7.5.1 is > 20 µM.
As to `C=c1[nH]c(=O)/c(=C/c2ccc3ccc4cccc5ccc2c3c45)[nH]c1=O`, the CC50 at 24 h in series [2] was > 100 µM. In addition, the half-maximal cytotoxic concentration (CC50) with Huh7.5.1 was > 20 µM. In addition, the IC50 in the series with Hepatitis C virus (JFH-1, Huh-7.5.1, 72 h) is 3.9 µM; with SARS-CoV-2, > 40 µM. Also, the IC90 in the series with Hepatitis C virus (JFH-1, Huh-7.5.1, time 72 hrs) is > 20 µM; in the series with SARS-CoV-2 (Severe acute respiratory syndrome coronavirus 2, WK-251, Vero C1008, time 24 hrs) it was > 40 µM.
`C=c1[nH]c(=O)/c(=C/c2cc(C(C)(C)C)cc(C(C)(C)C)c2)[nH]c1=O`: in the series on Huh7.5.1, the half-maximal cytotoxic concentration (CC50) was > 20 µM.
Take `C=CC(C)(C)c1[nH]c2ccccc2c1C[C@@H]1NC(=O)[C@H](C)NC1=O` [PREECHINULIN]: the CC50 in the series with Huh7.5.1 is > 20 µM.
As to `C=CC(C)(C)c1[nH]c2ccccc2c1/C=C1\NC(=O)C(C)(OC)NC1=O` (stereo not drawn) [VARIECOLORIN H], the CC50 in the series on Huh7.5.1 was > 20 µM.
For `C=c1[nH]c(=O)/c(=C/c2ccc(OC)cc2)[nH]c1=O`, the cytotoxic concentration (CC50) in the series with Huh7.5.1 was > 20 µM.
The same measure, in the same setting: with `C=c1[nH]c(=O)/c(=C/c2ccc(C)cc2)[nH]c1=O` the figure was > 20 µM.
For `C=c1[nH]c(=O)/c(=C/c2ccc(C(C)(C)C)cc2)[nH]c1=O`, the CC50 with Huh7.5.1 was > 20 µM. For the same compound, the result in the series on Huh-7.5.1 [3] was Active.
For `C=c1[nH]c(=O)/c(=C/c2ccc(N(C)C)cc2)[nH]c1=O`, the CC50 in the series on Huh7.5.1 is > 20 µM.
For `C=c1[nH]c(=O)/c(=C/c2cc(OC)c(OC)c(OC)c2)[nH]c1=O`, the CC50 with Huh7.5.1 was > 20 µM.
Consider `C=c1[nH]c(=O)/c(=C/c2ccc(OC)c(OC)c2)[nH]c1=O`, for which, in the series with Huh7.5.1, the CC50 was > 20 µM.
With `C=CC(C)(C)c1[nH]c2ccccc2c1/C=c1\[nH]c(=O)c(=C)[nH]c1=O` [NEOECHINULIN B], the cytotoxic concentration (CC50) in the series on Huh7.5.1 is > 20 µM. Moreover, in the series on Huh-7.5.1 [4], the outcome was Active.

The values above are taken from ChEMBL document CHEMBL5038642, “Synthesis and Antiviral Activities of Neoechinulin B and Its Derivatives” (J Nat Prod, 2022).
